Tested on: retinal ganglion cells (RGCs)
Type: in vivo, rat

C[C@@H](N)[C@H]1CC[C@H](C(=O)Nc2ccncc2)CC1 [Y-27632]
neuroprotective effect on RGCs (100 uM and 1 mM Y-27632, one week after optic nerve injury): No neuroprotective effect
rescue of neurons from trauma-induced cell death (Example 8, summary) (rat, in vivo): not able to rescue neurons from trauma-induced cell death

C[C@@H](N)C1CCN(S(=O)(=O)c2cccc3cnccc23)CC1 [BA-1049]
neuroprotection of RGCs (highest dose tested (10 uM and 100 uM BA-1049 tested)): modest neuroprotection
effect on RGC survival (FIG. 5) (very high concentration (1 mM)): detectable effect

C3-transferase
RGCs protected after axotomy (rat, in vivo): 80%

From patent US20150297643A1, “INHIBITION OF RHO AND OR ROCK AND CELL TRANSPLANTATION” (priority 2012, published 2015)
